{"source": "PubChem BioAssay AID1918955", "about": "(Molecular Pharmacology Branch, DTP, NCI, 2023)", "tested_on": "NCI/ADR-RES complex spheroid viability", "test": "Anticancer human tumor NCI/ADR-RES cell line growth inhibition;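 further: spheroids exposed to compounds for 7 days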;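 on viability, T/C: 100% = DMSO vehicle treated spheroids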", "details": "for viability, T/C: stronger effect = lower value", "description": "Multicellular complex tumor spheroid response to LSD1 Inhibitor Iadademstat in combination with a variety of drugs and investigational agents in selected tumor cell lines\nThe current study was undertaken to assess response to LSD1 inhibitors in combination with standard-of-care drugs and investigational agents in solid tumor complex spheroid models as well as in the K-562 leukemia. Complex spheroids include a stromal component modeled by human endothelial cells (HUVEC) and fibroblasts modeled by human mesenchymal stem cells (MSCs). The concentration ranges selected for each drug and investigational agent were based upon clinically achievable concentrations if the clinical Cmax of the agent was known.\nCompounds. The drugs and investigational agents used in this study are listed on Table 1. All of the agents used, including staurosporine (NSC755774) and gemcitabine (NSC613327), were obtained from the Developmental Therapeutics Program, NCI. FDA-approved anticancer drugs are available from the NCI at http://dtp.nci.nih.gov/branches/dscb/oncology_drugset_explanation.html. Drugs and investigational agents were >95% pure by proton nuclear magnetic resonance (NMR) and liquid chromatography/mass spectrometry (LC/MS). Stock solutions were prepared at 400x in DMSO, stored at -70 degrees C, and diluted in fresh medium prior to their use. The final concentration of DMSO in cell culture wells never exceeded 0.25% (v/v). The FDA-approved anticancer drug set is available from the Developmental Therapeutics Program at https://dtp.cancer.gov/organization/dscb/obtaining/available_plates.htm. All drugs and investigational agents were tested over a range starting from a high concentration at or near the clinical Cmax and decreasing in half-log increments. If the clinical Cmax for an agent had not been determined, the highest concentration tested was 10 microM.\nCell Lines. The patient-derived cancer cell (PDC) lines: 292921-168-R-J2-PDC, K24384-001-R-PDC, and 521955-158-R2-J5-PDC pancreatic carcinomas, 556581-035-R-J1 ovarian carcinoma, 324938-238-R-J1-PDC, 855422-203-R-J1-PDC and 883617-216-R-J1-PDC urothelial bladder carcinomas, 743489-274-T-PDC renal cell carcinoma, 138582-R-J1 Merkel cell tumor, K60290-347-R-J1 and K57222-313-R-J1-PDC glioblastomas, 653999-131-R-J2-PDC, LG0703-F948-PDC, and 349418-098-R-PDC non-small cell lung carcinomas, 885512-296-R-J2-PDC, 171881-019-R-J1-PDC breast carcinomas and 186277-243-T-J2-PDC and 233499-124-R-J2-PDC colon carcinomas were obtained from the NCI Patient-Derived Models Repository (PDMR, https://pdmr.cancer.gov). The established cell lines NCI/ADR-RES (RRID:CVCL_14520 and OVCAR-5 (RRID:CVCL_1628) ovarian carcinomas, 786-O (RRID:CVCL_1051) and A498 (RRID:CVCL_A498) renal cell carcinoma, NCI-H211 (ATCC, cat. CRL-5824; RRID:CVCL_1529), NCI-H196 (ATCC, cat. CRL-5823, RRID:CVCL_1509), SW 1271 (ATCC, cat. CRL-2177, RRID:CVCL_1716) and NCI-H1876 (ATCC, cat. CRL-5902, RRID:CVCL_1503) small cell lung carcinomas, MDA-MB-231 (RRID:CVCL_0062) and MDA-MB-468 (RRID:CVCL_0419)breast carcinomas (10-12). Pooled donor human umbilical vein endothelial cells (HUVEC, Lonza, cat. CC-2519) and human mesenchymal stem cells (hMSC, Lonza, cat. PT-2501) were purchased from Lonza (Walkersville, MD).\nCell Culture. All cells were maintained in an incubator at 37 degrees C and 5% CO2 with 95% humidity. The PDC lines were cultured according to standard operating procedures established by the NCI PDMR (https://pdmr.cancer.gov). Briefly all PDCs were thawed and cultured in Matrigel-coated flasks prepared with a working solution of 1X Ham's F-12 nutrient mix, without supplementation (Invitrogen, Waltham, MA, cat. 11765054), 100 U/mL penicillin-streptomycin (Invitrogen, cat. 15140122), and 2.5% Matrigel (Corning Inc., Corning, NY, cat. 354248) for the first three passages. […]", "note": "Several values for one entry are separate records, joined by “and”; a condition that tells them apart may be missing. Equal values may be shown once."}
{"compound": "NS(=O)(=O)OCC1CC(n2ccc3c(NC4CCc5ccccc54)ncnc32)CC1O", "note": "(centres undefined)", "values": [{"measurement": "viability, T/C", "setting": "compound 0.00949 µM", "value": "94% and 94.6%"}, {"measurement": "viability, T/C", "setting": "compound 0.03 µM", "value": "91% and 98.8%"}, {"measurement": "viability, T/C", "setting": "compound 0.0949 µM", "value": "87.3% and 86.9%"}, {"measurement": "viability, T/C", "setting": "compound 0.3 µM", "value": "72.3% and 74.8%"}, {"measurement": "viability, T/C", "setting": "compound 0.949 µM", "value": "35.7% and 45.3%"}, {"measurement": "viability, T/C", "setting": "compound 3 µM", "value": "14.5% and 17.2%"}, {"measurement": "IC50", "setting": "curve of compound", "value": "605 nM and 791 nM"}]}
{"compound": "Cn1ncnc1C1c2n[nH]c(=O)c3cc(F)cc(c23)NC1c1ccc(F)cc1", "note": "(centres undefined) + NC1CC1c1ccc(-c2cccc(O)c2)cc1", "values": [{"measurement": "IC50", "setting": "curve of first compound, second compound 0.1 µM", "value": "> 100", "unit": "nM"}, {"measurement": "IC50", "setting": "curve of first compound, second compound 0.316 µM", "value": "> 100", "unit": "nM"}, {"measurement": "IC50", "setting": "curve of first compound, second compound 1 µM", "value": "> 100", "unit": "nM"}, {"measurement": "IC50", "setting": "curve of first compound, second compound 3.16 µM", "value": "> 100", "unit": "nM"}, {"measurement": "IC50", "setting": "curve of first compound, second compound 10 µM", "value": "> 100", "unit": "nM"}, {"measurement": "viability, T/C", "setting": "second compound 0.1 µM, first compound 0.000316 µM", "value": 101, "unit": "%"}, {"measurement": "viability, T/C", "setting": "second compound 0.1 µM, first compound 0.001 µM", "value": 104, "unit": "%"}, {"measurement": "viability, T/C", "setting": "second compound 0.1 µM, first compound 0.00316 µM", "value": 106, "unit": "%"}, {"measurement": "viability, T/C", "setting": "second compound 0.1 µM, first compound 0.01 µM", "value": 103, "unit": "%"}, {"measurement": "viability, T/C", "setting": "second compound 0.1 µM, first compound 0.0316 µM", "value": 104, "unit": "%"}, {"measurement": "viability, T/C", "setting": "second compound 0.1 µM, first compound 0.1 µM", "value": 97, "unit": "%"}, {"measurement": "viability, T/C", "setting": "second compound 0.316 µM, first compound 0.000316 µM", "value": 104, "unit": "%"}, {"measurement": "viability, T/C", "setting": "second compound 0.316 µM, first compound 0.001 µM", "value": 107, "unit": "%"}, {"measurement": "viability, T/C", "setting": "second compound 0.316 µM, first compound 0.00316 µM", "value": 104, "unit": "%"}, {"measurement": "viability, T/C", "setting": "second compound 0.316 µM, first compound 0.01 µM", "value": 110, "unit": "%"}, {"measurement": "viability, T/C", "setting": "second compound 0.316 µM, first compound 0.0316 µM", "value": 110, "unit": "%"}, {"measurement": "viability, T/C", "setting": "second compound 0.316 µM, first compound 0.1 µM", "value": 105, "unit": "%"}, {"measurement": "viability, T/C", "setting": "second compound 1 µM, first compound 0.000316 µM", "value": 98.2, "unit": "%"}, {"measurement": "viability, T/C", "setting": "second compound 1 µM, first compound 0.001 µM", "value": 101, "unit": "%"}, {"measurement": "viability, T/C", "setting": "second compound 1 µM, first compound 0.00316 µM", "value": 109, "unit": "%"}, {"measurement": "viability, T/C", "setting": "second compound 1 µM, first compound 0.01 µM", "value": 95.8, "unit": "%"}, {"measurement": "viability, T/C", "setting": "second compound 1 µM, first compound 0.0316 µM", "value": 100, "unit": "%"}, {"measurement": "viability, T/C", "setting": "second compound 1 µM, first compound 0.1 µM", "value": 102, "unit": "%"}, {"measurement": "viability, T/C", "setting": "second compound 3.16 µM, first compound 0.000316 µM", "value": 105, "unit": "%"}, {"measurement": "viability, T/C", "setting": "second compound 3.16 µM, first compound 0.001 µM", "value": 99.3, "unit": "%"}, {"measurement": "viability, T/C", "setting": "second compound 3.16 µM, first compound 0.00316 µM", "value": 100, "unit": "%"}, {"measurement": "viability, T/C", "setting": "second compound 3.16 µM, first compound 0.01 µM", "value": 97, "unit": "%"}, {"measurement": "viability, T/C", "setting": "second compound 3.16 µM, first compound 0.0316 µM", "value": 97.3, "unit": "%"}, {"measurement": "viability, T/C", "setting": "second compound 3.16 µM, first compound 0.1 µM", "value": 93.8, "unit": "%"}, {"measurement": "viability, T/C", "setting": "second compound 10 µM, first compound 0.000316 µM", "value": 97.1, "unit": "%"}, {"measurement": "viability, T/C", "setting": "second compound 10 µM, first compound 0.001 µM", "value": 91.1, "unit": "%"}, {"measurement": "viability, T/C", "setting": "second compound 10 µM, first compound 0.00316 µM", "value": 90.5, "unit": "%"}, {"measurement": "viability, T/C", "setting": "second compound 10 µM, first compound 0.01 µM", "value": 96.8, "unit": "%"}, {"measurement": "viability, T/C", "setting": "second compound 10 µM, first compound 0.0316 µM", "value": 94.6, "unit": "%"}, {"measurement": "viability, T/C", "setting": "second compound 10 µM, first compound 0.1 µM", "value": 85.3, "unit": "%"}]}
{"compound": "COc1ccc([C@@H](O)c2cc(-c3ncnc4cc(N5CCOCC5)ccc34)c(F)cc2Cl)nn1", "values": [{"measurement": "viability, T/C", "setting": "compound 0.0316 µM", "value": 106, "unit": "%"}, {"measurement": "viability, T/C", "setting": "compound 0.1 µM", "value": "99.9% and 99.3%"}, {"measurement": "viability, T/C", "setting": "compound 0.316 µM", "value": "87.1% and 94.3%"}, {"measurement": "viability, T/C", "setting": "compound 1 µM", "value": "77.2% and 72.6%"}, {"measurement": "viability, T/C", "setting": "compound 3.16 µM", "value": "52.9% and 49.2%"}, {"measurement": "viability, T/C", "setting": "compound 10 µM", "value": "28.3% and 28%"}, {"measurement": "IC50", "setting": "curve of compound", "value": "3810 nM and 2980 nM"}]}
